“Also recorded” adds a separate entry of the source. Where only a bound is given, the exact number is not on record here.

Here are results for 1 compound from patent publication US12564568B2, “PKC pathway in Parkinson's Disease” (CEDARS-SINAI MEDICAL CENTER, priority 2018, dated 2026).

The test system of series [1] is tyrosine hydroxylase (TH). It is filed as cell-based, human. The protocol:
iPSC maintenance, mDA neuron differentiation and drug treatments: iPSCs were maintained in E8 media on Matrigel and passaged every 5 days at split ratios from 1:6 to 1:12 as needed using Versene. Only iPSCs between passage 17 and passage 35 were used in this study. For differentiation, iPSCs were grown to ˜80% confluency. Cells were singularized with Accutase (Millipore/Sigma #SCR005) (5 minutes at 37° C.) and plated onto Matrigel-coated 6-well plates (BD Biosciences) at 200K cells per cm^2 (for a fully confluent monolayer) in E8 media with 5 μM Y27632 (StemGent). 24 hours after plating, media was changed to Stage 1 (50% DMEM/F12, 50% Neurobasal, N2, B27-Vitamin A, LDN-193189 (LDN), SB431542 (SB)). Stage 1 media was changed each day (3 mL per well) for 3 days. Media was next switched to Stage 2 (50% DMEM/F12, 50% Neurobasal, N2, B27-Vitamin A, LDN, SB, Purmorphamine (PMN), CHIR99021 (CHIR), Sonic hedgehog (SHH), Fibroblast Growth Factor 8 (FGF8)). Stage 2 media was changed each day (3 mL per well) for 4 days. Media was then switched to Stage 3 (50% DMEM/F12, 50% Neurobasal, N2, B27-Vitamin A, LDN, CHIR, all-trans-Retinoic acid (ATRA)). Stage 3 media was changed each day (3 mL per well) for 4 days. Finally, media was switched to Stage 4 (50% DMEM/F12, 50% Neurobasal, N2, B27+Vitamin A, Brain-Derived Neurotrophic Factor (BDNF), Glial Cell Line-Derived Neurotrophic Factor (GDNF), dibutyryl cyclic-AMP sodium salt (dbCAMP), L-Ascorbic Acid (AA), γ-Secretase inhibitor (DAPT), CHIR, Transforming Growth Factor beta-3 (TGF β3)). Stage 4 media was changed each day (3 mL per well) for 3 days. On day 15, cells were dissociated to single cells using Accutase (20 mins at 37° C.) and gently lifted. Dissociated cells were resuspended in Maturation Medium (50% DMEM/F12, 50% Neurobasal, N2, B27+Vitamin A, BDNF, GDNF, dbCAMP, AA, DAPT, TGF3) plus 5 μM Y27632 and reseeded onto Matrigel-coated 6-well plates at 200 k/cm^2 in 1 mL total volume or onto Matrigel-coated L-glass coverslips in a 24-well plate at 200 k/50 μL drop. Cells were allowed to attach for 45 mins at 37° C. and Maturation Medium was then added to final volumes of 3 mL per well for 6-well plates or 1.5 mL per well for 24-well plates with coverslips. A full medium change was performed 48-hours post-seeding and medium was changed every 3 days until day 30. For drug treatments, cells at day-27 were fed with Maturation Medium containing the indicated drug and cells were analyzed at day 30.
Analytical flow cytometry: Day-30 cultures in 6-well plates were washed once in phosphate buffered saline (PBS) then 1 mL Accutase was added to each well and incubated for 25 mins at 37° C. or until the cells fully lifted. Cells were washed with an additional 2 mL Maturation Medium and very gently triturated until large clumps were no longer visible at which point cells were pelleted by centrifugation (1500 RPM for 3 mins). Cells were gently resuspended in 4% paraformaldehyde (PFA) in PBS and allowed to fix for 10-15 mins at room temperature. Fixed single cells were permeabilized using 1% Trition X-100 (Sigma-Aldrich) and stained using primary antibodies against TH (1:500 Immunostar, 22941), α-synuclein (1:1000 Abcam, ab138501), and MAP2ab (1:1000 Sigma-Aldrich, M1406), or isotype controls at same dilution (Cell Signaling IgG Isotype Control rabbit #3900S and mouse #5415S). Secondary antibodies (Alexa Fluor 488 and 594 donkey anti-mouse and donkey anti-rabbit, Invitrogen) were used at 1:500. Stained samples were quantified on an LSR Fortessa cytometer using BD FACSDiva software.
Immunocytochemistry and imaging: mDA neuron cultures were plated on L-glass coverslips and grown as above. Day 30 neurons were fixed in 4% PFA at room temperature for 10-15 mins. […]

The next series deals with synuclein. Nature of the series: Injection into the ventricles of WT mice, synuclein in striatum. It is filed as in vivo, mouse. Particulars: 0.3, 3, and 30 uM injected into ventricles of WT mice; 1 and 5 days post injection. The method, then:
In vivo, PEP stimulates synuclein degradation. Dosage studies of 0.3, 3, and 30 uM PEP was injected into the ventricles of WT mice.

Series [2] is described as follows: In vitro blood plasma binding, rat. It is filed as in vitro ADME. The text has this: (§1) This may complicate IV delivery.
A short description of series [3]: In vitro blood plasma binding, rabbit. The series is classed as in vitro ADME.
Text: as §1

The nature of series [4]: Dose ranging study in rat. It is filed as in vivo. The settings on record: rats, for 7 days. The method, then:
For dose ranging studies in rat and mini-pig. Repeated doses up to 15 ug/kg/day for 7 days were tolerated in rats, 5 ug/kg in pigs

The nature of series [5]: Repeat dose tox study in mini-pigs. It is filed as in vivo, mini-pig. The settings on record: 5 ug/kg dose IV approximately 1x/week, intake recovered afterwards. The protocol: In a repeat dose tox study in rats—animals were given up to 10 ug/kg/day for 7 days by IV tail vein injection. […] In a repeat dose tox study in mini-pigs—animals were given up to 5 ug/kg/day IV approximately 1×/week.

Another series has as its system PKC C1 domains. The settings on record: cited from earlier work.

Take `C/C=C(/C)C(=O)O[C@H]1C(C)=C[C@]23C(=O)[C@@H](C=C(CO)[C@@H](O)[C@]12O)[C@H]1[C@@H](C[C@H]3C)C1(C)C` [PEP005, ingenol-3-angelate]: the TH by immunostaining result in series [1] (PEP005-treated mDA cultures) is recorded as “enhanced”. In addition, in series [1] (both control and PD cultures, 3 days treatment from day 27, listed as PEP), the “amount of TH enzyme present” value is reported as “increase”. Besides, the “number of TH neurons (flow cytometry)” value in series [1] (d30 mDA cultures, PEP005 72 hrs) was “did not result in an increased number”. Moreover, the “level of TH expression in neurons (flow cytometry)” value in series [1] (d30 mDA cultures, PEP005 72 hrs, relative to untreated) is recorded as “significantly higher levels”. For the same compound, the “synuclein in mouse striatum” value in the series on synuclein is “Reduction”. Besides, the plasma binding result in series [2] and in series [3] was “highly efficient plasma binding” throughout. Further, the tolerated repeated dose result in series [4] was “up to 15 ug/kg/day”. Besides, in series [5], the food intake entry is “lower food intake the following day”. Also, the “p-PKCα signal (western blot)” value in the series with p-PKCα (control and PD cultures / all iPSC lines, 1 μM PEP005 for 3 days) is on record as “completely ablate; also recorded: completely ablating; also recorded: clearly ablated”. Besides, the “p-PKCα expression, dose response” value with p-PKCα (dose response study, 172iPD mDA culture) is “clear dose-response relationship”. Further, the “p-PKCα levels at low PEP005 doses” value in the series with p-PKCα (dose response study, low doses) is listed as “did not alter”. The “time post dose at which pPKCα levels were still depressed” value in the series on p-PKCα (in vitro, single 24-hour dose) is at least 240 hours. The “time until p-PKCα is degraded in response to drug treatment” value in the series on p-PKCα (time-course, control and PD cultures) was at most 24 h. Further, the “affinity for PKC C1 domains” value in the series with PKC C1 domains was “subnanomolar”.
